Laboratory results reported in US8697708B2, “Azabenzothiazole compounds, compositions and methods of use” (F. Hoffmann-La Roche AG, priority 2010, dated 2014).
Structures can show the parent of a compound that is named as a salt.

Target: TYK2 (Homo sapiens (Human), UniProt P29597)
Experiment: JAK1, JAK2 and TYK2 Inhibition Assay Protocol (Example A): TYK2 kinase domain, Caliper LabChip peptide phosphorylation
Assay type: biochemical
Conditions: isolated TYK2 kinase domain, 1 nM enzyme, 25 μM ATP, Morrison tight binding model
Experimental: The activity of the isolated JAK1, JAK2 or TYK2 kinase domain was measured by monitoring phosphorylation of a peptide derived from JAK3 (Val-Ala-Leu-Val-Asp-Gly-Tyr-Phe-Arg-Leu-Thr-Thr) fluorescently labeled on the N-terminus with 5-carboxyfluorescein using the Caliper LabChip technology (Caliper Life Sciences, Hopkinton, Mass.). […] Reactions were incubated at 22° C. in 384-well polypropylene microtiter plates for 30 minutes and then stopped by addition of 25 μL of an EDTA containing solution (100 mM Hepes pH 7.2, 0.015% Brij-35, 150 mM EDTA), resulting in a final EDTA concentration of 50 mM. After termination of the kinase reaction, the proportion of phosphorylated product was determined as a fraction of total peptide substrate using the Caliper LabChip 3000 according to the manufacturer's specifications. Ki values were then determined using the Morrison tight binding model. Morrison, J. F., Biochim. Biophys. Acta. 185:269-296 (1969); William, J. W. and Morrison, J. F., Meth. Enzymol., 63:437-467 (1979).

Sequence of TYK2 (P29597 897-1176): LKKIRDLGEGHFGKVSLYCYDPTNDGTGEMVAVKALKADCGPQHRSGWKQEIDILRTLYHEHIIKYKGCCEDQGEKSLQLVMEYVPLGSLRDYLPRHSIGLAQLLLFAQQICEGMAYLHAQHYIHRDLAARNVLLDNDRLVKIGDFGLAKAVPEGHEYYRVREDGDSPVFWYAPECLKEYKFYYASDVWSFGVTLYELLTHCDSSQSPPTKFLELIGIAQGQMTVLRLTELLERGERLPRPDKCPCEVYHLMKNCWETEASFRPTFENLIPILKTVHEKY

O=C(CO)Nc1nccc2nc(-c3c(Cl)cccc3Cl)sc12 [Example 10, N-(2-(2,6-Dichlorophenyl)thiazolo[5,4-c]pyridin-4-yl)-2-hydroxyacetamide]
Ki: 23 nM

Cc1cc(Nc2nccc3nc(-c4ccccc4Cl)sc23)nc(C)n1 [Example 56, 2-(2-chlorophenyl)-N-(2,6-dimethylpyrimidin-4-yl)thiazolo[5,4-c]pyridin-4-amine]
Ki: 8.6 nM

Cc1cc(Nc2nccc3nc(-c4c(Cl)cc(CO)cc4Cl)sc23)ncn1 [Example 22, {3,5-Dichloro-4-[4-(6-methyl-pyrimidin-4-ylamino)-thiazolo[5,4-c]pyridin-2-yl]-phenyl}-methanol]
Ki: 1 nM

CCc1cc(Nc2nccc3nc(-c4c(Cl)cc(C(N)=O)cc4Cl)sc23)ncn1 [Example 129, 3,5-Dichloro-4-[4-(6-ethylpyrimidin-4-ylamino)thiazolo[5,4-c]pyridin-2-yl]-benzamide]
Ki: 1.6 nM

OCc1ccnc(Nc2nccc3nc(-c4c(Cl)cccc4Cl)sc23)c1 [Example 18, (2-(2-(2,6-dichlorophenyl)thiazolo[5,4-c]pyridin-4-ylamino)pyridin-4-yl)methanol]
Ki: 0.3 nM

Cc1cc(Nc2nccc3nc(-c4c(C#N)cc(C#N)cc4C#N)sc23)nc(C)n1 [Example 227, 2-(4-(2,6-dimethylpyrimidin-4-ylamino)thiazolo[5,4-c]pyridin-2-yl)benzene-1,3,5-tricarbonitrile]
Ki: 0.8 nM

N#Cc1cnc(Nc2cc(N)ncn2)c2sc(-c3c(F)cccc3Cl)nc12 [Example 223, 4-(6-aminopyrimidin-4-ylamino)-2-(2-chloro-6-fluorophenyl) thiazolo[5,4-c] pyridine-7-carbonitrile]
Ki: 0.4 nM

N#Cc1cccc(F)c1-c1nc2c(C#N)cnc(Nc3cc(N)ncn3)c2s1 [Example 224, 4-(6-aminopyrimidin-4-ylamino)-2-(2-cyano-6-fluorophenyl) thiazolo[5,4-c] pyridine-7-carbonitrile]
Ki: 0.3 nM

O=C(Nc1nccc2nc(-c3c(Cl)cccc3Cl)sc12)C1CC1 [Example 2, N-(2-(2,6-Dichlorophenyl)thiazolo[5,4-c]pyridin-4-yl)cyclopropanecarboxamide]
Ki: 0.5 nM

Cc1cc(Nc2nccc3nc(-c4c(Cl)cc(C5CC5)cc4Cl)sc23)ncn1 [Example 138, [2-(2,6-Dichloro-4-cyclopropylphenyl)thiazolo[5,4-c]pyridin-4-yl]-(6-methylpyrimidin-4-yl)-amine]
Ki: 4.1 nM

Cc1nc(CO)cc(Nc2nccc3nc(-c4c(Cl)cccc4C#N)sc23)n1 [Example 236, 3-Chloro-2-[4-(6-hydroxy-methyl-2-methyl-pyrimidin-4-ylamino)-thiazolo[5,4-c]pyridin-2-yl]-benzonitrile hydrochloride salt]
Ki: 0.5 nM

O=C(Nc1ncnc2nc(-c3c(Cl)cccc3Cl)sc12)C1CC1 [Example 24, N-(2-(2,6-dichlorophenyl)thiazolo[4,5-d]pyrimidin-7-yl)cyclopropanecarboxamide]
Ki: 6.2 nM

N#Cc1cc(Cl)c(-c2nc3c(F)cnc(NC(=O)C4CC4)c3s2)c(Cl)c1 [Example 213, Cyclopropane-carboxylic acid [2-(2,6-dichloro-4-cyano-phenyl)-7-fluorothiazolo[5,4-c]pyridin-4-yl]-amide]
Ki: 1.5 nM

O=C(Nc1nccc2nc(-c3c(F)cccc3Cl)sc12)NC1CC1 [Example 16, 1-(2-(2-Chloro-6-fluorophenyl)thiazolo[5,4-c]pyridin-4-yl)-3-cyclopropylurea]
Ki: 1.4 nM
